Measured values as given in US9161944B2, “Method for preventing cancer metastasis” (INSERM (INSTITUT NATIONAL DE LA SANTE ET DE LA SANTE ET DE …, priority 2010, dated 2015).
Like-named read-outs stand apart in the source and are kept apart here. Each block holds one compound with its values, some of them ahead of it.

Legend:
SK3/KCa2.3 channel = SK3/KCa2.3 channel (Homo sapiens, UniProt Q9UGI6); experiment: Whole-cell patch clamp on HEK293 cells expressing SK3; format: cell-based; design: expressed in transfected cells; host or cells: HEK293, lentiviral transduction, clonal selection; details: for Conductance decreasing / Inhibition of I at 0 mV: HEK 293 LvSK3 cells; for Inhibition of I at 0 mV: 10 μM stated for JPH1701; for Effect on SK3 activity: less effect than JPH1701
Method: The percentages of inhibition represent the ratio (SK3 current amplitude and chord conductance (in the presence of 10 μM JPH1701)/SK3 current amplitude in control experiments). Black bars show current at 0 mV and grey bars indicate the chord conductance. […] Columns, mean, bars, SEM, (5 cells for racemic mix and 4 cells for + and − forms).
MDA-MB-435s and HEK293 cells were transduced with lentiviral vector at multiplicities of infection (MOI) of 1 to 3 in the presence of polybrene (4 μg/ml, Sigma).
Experiments were performed with cells seeded into 35-mm Petri dishes at 3000 cells per cm2. All experiments were performed using the conventional whole-cell recording configuration of the patch-clamp technique as previously described. PCa solution was 7 and 6.4 respectively for MDA-MB-435s and HEK293-SK3/KCa2.3 cells.
Briefly, experiments were conducted using Axopatch 200B patch-clamp amplifier (Axon Instrument) and data, digitized with 1322-A Digidata converter (Axon Instrument), were stored on a computer using Clampex of pClamp 9.2 software (Axon Instru-ment). The patch-clamp data was analyzed using both Clampfit 9.2 and Origin 7.0 software (Microcal Inc., Northampton, Mass., USA).
The pipette solution for the whole-cell recordings contained (in mM): K-glutamate 125, KCl 20, MgCl2 1, Mg-ATP 1, HEPES 10, and pH was adjusted to 7.2 with KOH and various concentrations of CaCl2 and EGTA were added to obtain calculated pCa=7 (0.37 mM CaCl2 and 10 mM EGTA) or pCa=6.4 (0.7 mM CaCl2 and 1 mM EGTA).
We next developed HEK cells expressing SK3/KCa2.3 channel in order to test directly analogues on SK3 activity measured using patch-clamp technique (FIG. 8). […] The JPH1701-induced inhibition of SK3 current was analysed at 0 mV and the entire time course of the experiment is depicted in FIG. 8A.
Current activity has been measured in HEK 293 LvSK3 and in MDA-MB-435s cells. The percentages represent the inhibition of current and of conductance by compounds on SK3 channel in HEK 293 cells.

MDA-MB-435s (SK3+) = experiment: Cell migration / 2D motility assay (transwell inserts, wound healing); format: cell-based, human; details: for Effect on cell migration: summary of table 2
Source text: Alternatively, the cell migration inhibitory activity of a compound of formula (I) may be assessed by performing a Wound Healing assay that is disclosed in the examples herein and for which the one skilled in the art may also refer to the article of Rodriguez et al. (2005, Methods Biol Mol, Vol. 294: 23-29). The wound-healing assay is simple, inexpensive, and one of the earliest developed methods to study directional cell migration in vitro. This method mimics cell migration during wound healing in vivo. The basic steps involve creating a “wound” in a cell monolayer, capturing the images at the beginning and at regular intervals during cell migration to close the wound, and comparing the images to quantify the migration rate of the cells. It is particularly suitable for studies on the effects of cell-matrix and cell-cell interactions on cell migration. Cells are seeded in culture dishes and grown until confluence in DMEM supplemented with 10% foetal calf serum. The monolayer is then scratched with a sterile yellow pipette tip. Then, migration of cells to the cleared area is inspected under a microscope. Pictures are taken directly at the time of scratching and after 24 h, so as to determine the ability of the tested cells to migrate.
Wound healing assay: Cells were seeded in culture dishes and grown until confluence in DMEM supplemented with 10% foetal calf serum. The monolayer was scratched with a sterile yellow pipette tip. The migration of cells to the cleared area was inspected under a microscope. Pictures were taken directly at the time of scratching and after 24 h.
At least three independent experiments were each performed in triplicate.

PAF receptor [1] = molecular target: T1, PAF receptor (Homo sapiens, UniProt P25105); experiment: PAF receptor agonist response (increase of intracellular calcium); format: cell-based; details: 0.3 and 2 μM, FIG. 11B
T1 sequence (P25105 whole entry): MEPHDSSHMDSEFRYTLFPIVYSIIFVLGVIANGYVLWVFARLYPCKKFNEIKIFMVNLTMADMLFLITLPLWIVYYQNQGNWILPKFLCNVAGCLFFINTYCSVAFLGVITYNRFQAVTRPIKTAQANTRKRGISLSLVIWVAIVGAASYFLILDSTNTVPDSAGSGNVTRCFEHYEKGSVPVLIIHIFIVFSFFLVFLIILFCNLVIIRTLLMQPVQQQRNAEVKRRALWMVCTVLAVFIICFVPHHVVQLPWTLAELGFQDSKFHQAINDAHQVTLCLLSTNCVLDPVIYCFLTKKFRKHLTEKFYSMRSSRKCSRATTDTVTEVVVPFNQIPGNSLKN
Method: (§1) FIG. 11: Effects of JPH1701 on PAF receptor, PLC and PKCs activities. FIG. 11A) Histogram showing the percentage of control specific binding of 3H-C16-PAF to recombinant PAF receptor obtained from membrane homogenates of CHO cells by 0.3 and 2 μM edelfosine and by 0.3 and 2 μM JPH1701. FIG. 11B) Histogram showing the percentage of control agonist response (% effect i.e: increase of intracellular calcium concentration) of 0.3 and 2 μM edelfosine and JPH1701 on PAF receptor normalized to the response induced by 100 nM C16-PAF. […] FIG. 11C-D) Dose responses curves showing the effect of JPH1701 on PKCs (FIG. 11C, PKCs are: alpha, Beta 1, Beta 2, Gamma, Delta, Epsilon, Zeta, Eta, Theta, Iota) and PhosphoLipase C (PLC) activities (FIG. 11D).

PhosphoLipase C (PLC) = experiment: PhosphoLipase C activity; format: biochemical; details: FIG. 11D
Method: as §1

[2] = Cytotoxicity / cell viability (MTT, tetrazolium salt reduction); details: human
MDA-MB-435s [3] = experiment: as above
PAF receptor [4] = molecular target: T1, PAF receptor; experiment: 3H-C16-PAF binding, membrane homogenates of CHO cells; design: expressed in transfected cells; host or cells: CHO cells (membrane homogenates); details: 0.3 and 2 μM, FIG. 11A
Method: as §1

MDA-MB-435s [5] = system: MDA-MB-435s
[6] = Homo sapiens, MDA-MB-435S, Table 2, concentration 300 nM
[7] = Table 2, viability of MDA-MB-435s

Conductance decreasing (SK3/KCa2.3 channel): 38.9 ± 5.5%
Inhibition of I at 0 mV (SK3/KCa2.3 channel): 42.5 ± 8.2%
Effect on SK3 activity (SK3/KCa2.3 channel): reduced SK3 activity
SMILES: CCCCCCCCCCCCCCCCOCC(COP(=O)(O)OC1OC(COC(C)=O)C(OC2OC(COC(C)=O)C(OC(C)=O)C(OC(C)=O)C2OC(C)=O)C(OC(C)=O)C1OC(C)=O)OC.CCN(CC)CC (mixture of isomers) [CHS31]

SMILES: CCCCCCCCCCCCCCCCCCOCC(COP(=O)([O-])OCC[N+](C)(C)C)OC (centres unmarked) [Edelfosine, reference compound]
inhibition at 0.01 µM (MDA-MB-435s (SK3+); Homo sapiens, MDA-MB-435S, Table 2, concentration 10 nM): 60%
inhibition at 0.3 µM (MDA-MB-435s (SK3+); [6]): 80%
PAF receptor agonist response (PAF receptor [1]): dose-dependently increase intracellular calcium
IC50 (PhosphoLipase C (PLC)): 2.5 µM
IC50 at 24 h ([2]; MDA-MB-435s cells (metastatic cancer cell line)): < 5 µM
IC50 (MDA-MB-435s [3]; Homo sapiens, MDA-MB-435S): ~5 µM
Toxicity (MDA-MB-435s [3]; [7]): Yes at 10 μM
Interaction with C16-PAF binding site of PAF receptor (PAF receptor [4]): able to interact

SMILES: CCCCCCCCCCCCCCCCOCC(O)CO (centres unmarked) [GS 1361]
Migration (% of inhibition) (MDA-MB-435s (SK3+); Table 2, concentration 300 nM): 40%
Toxicity (MDA-MB-435s [5]): No at 10 μM

SMILES: CCCCCOCC(O)CO[C@@H]1O[C@H](COC(C)=O)[C@@H](OC(C)=O)[C@H](OC(C)=O)[C@H]1OC(C)=O (some centres unmarked) [HCG450]
Toxicity (MDA-MB-435s [5]): Yes at 10 μM
IC50 (MDA-MB-435s [3]; [7]): ~30 µM

SMILES: CCCCCOCC(O)CO[C@@H]1O[C@H](CO)[C@@H](O)[C@H](O)[C@H]1O (some centres unmarked) [HCG451]
Migration (% of inhibition) (MDA-MB-435s (SK3+); Table 2, concentration 300 nM): No effect
Effect on cell migration (MDA-MB-435s (SK3+)): ineffective in cell migration
Toxicity (MDA-MB-435s [5]): No until 100 μM

Conductance decreasing (SK3/KCa2.3 channel): 18.1 ± 2.3%
Inhibition of I at 0 mV (SK3/KCa2.3 channel): 22.8 ± 2.1%
Effect on SK3 activity (SK3/KCa2.3 channel): reduced SK3 activity
SMILES: CCCCCCCCCCCCCCCCOC[C@H](CO[C@@H]1O[C@H](COC(C)=O)[C@@H](O[C@@H]2O[C@H](COC(C)=O)[C@H](OC(C)=O)[C@H](OC(C)=O)[C@H]2OC(C)=O)[C@H](OC(C)=O)[C@H]1OC(C)=O)OC [JPH1700]

Conductance decreasing (SK3/KCa2.3 channel): 34.1 ± 6.8%
Inhibition of I at 0 mV (SK3/KCa2.3 channel): 44.0 ± 5.5%
SMILES: CCCCCCCCCCCCCCCCOC[C@H](CO[C@@H]1O[C@H](CO[C@H]2O[C@H](COC(C)=O)[C@H](OC(C)=O)[C@H](OC(C)=O)[C@H]2OC(C)=O)[C@@H](OC(C)=O)[C@H](OC(C)=O)[C@H]1OC(C)=O)OC [JPH1874]

Conductance decreasing (SK3/KCa2.3 channel): 46.1 ± 6.1%
Inhibition of I at 0 mV (SK3/KCa2.3 channel): 44.7 ± 5.0%
SMILES: CCCCCCCCCCCCCCCCOC[C@H](CO[C@@H]1O[C@H](COC(C)=O)[C@@H](O[C@H]2O[C@H](COC(C)=O)[C@@H](OC(C)=O)[C@H](OC(C)=O)[C@H]2OC(C)=O)[C@H](OC(C)=O)[C@H]1OC(C)=O)OC [JPH1880]

SMILES: CCCCCCCCCCCCCCCCOCC(COP(=O)(O)OCC[N+](C)(C)C)OC (centres unmarked) [JPH 1321]
inhibition at 0.1 µM (MDA-MB-435s (SK3+); Homo sapiens, MDA-MB-435S, Table 1, concentration 100 nM, read-out: Cell Migration inhibition of MDA-MB-435s (SK3+), Inhibitory effect): 50%
IC50 at 24 h ([2]; MDA-MB-435s cells): ~30 µM

SMILES: CCCCCCCCCCCCCCCCOCC(CO[C@@H]1O[C@H](COC(C)=O)[C@H](OC(C)=O)[C@H](OC(C)=O)[C@H]1OC(C)=O)OC (some centres unmarked) [JPH 1519]
Migration (% of inhibition) (MDA-MB-435s (SK3+); Table 2, concentration 100 nM): 20%

SMILES: CCCCCCCCCCCCCCCCOCC(CO[C@@H]1O[C@H](CO)[C@H](O)[C@H](O)[C@H]1O)OC (some centres unmarked) [JPH 1524]
Migration (% of inhibition) (MDA-MB-435s (SK3+); Table 2, concentration 300 nM): 20%
Toxicity (MDA-MB-435s [5]): Yes at 10 μM
IC50 (MDA-MB-435s [3]; [7]): ~10 µM

SMILES: CCCCCCCCCCCCCCCCOCC(CO)OC (centres unmarked) [JPH 1597]
Migration (% of inhibition) (MDA-MB-435s (SK3+); Table 2, concentration 300 nM): No effect
Effect on cell migration (MDA-MB-435s (SK3+)): decrease its inhibitory effect on cell migration
Toxicity (MDA-MB-435s [5]): No at 10 μM
IC50 (MDA-MB-435s [3]; [7]): ~50 µM

SMILES: CCCCCCCCCCCCCCCCCCOCC(CO[C@@H]1O[C@H](CO)[C@@H](O[C@@H]2O[C@H](CO)[C@H](O)[C@H](O)[C@H]2O)[C@H](O)[C@H]1O)OC (some centres unmarked) [JPH 1731]
Migration (% of inhibition) (MDA-MB-435s (SK3+); Table 2, concentration 100 nM): 30%

SMILES: CCCCCCCCCCCCCCCCOP(=O)([O-])OCC[N+](C)(C)C [Miltefosine, reference compound]
inhibition at 0.3 µM (MDA-MB-435s (SK3+); [6]): 20%
Effect on cell migration (MDA-MB-435s (SK3+)): ineffective on cell migration
IC50 (MDA-MB-435s [3]; Homo sapiens, MDA-MB-435S): ~10 µM

SMILES: CCCCCCCCCCCCCCCCOCC(COP(=O)([O-])OCC[N+](C)(C)C)OC(C)=O (centres unmarked) [PAF, reference compound]
Migration (% of inhibition) (MDA-MB-435s (SK3+); Table 2, concentration 300 nM): No effect
Effect on cell migration (MDA-MB-435s (SK3+)): no effect on cell migration
Toxicity (MDA-MB-435s [3]; [7]): No until 100 μM

SMILES: CCCCCCCCCCCCCCCCCCOP(=O)([O-])OCC[N+](C)(C)C [SK55]
Effect on cell migration (MDA-MB-435s (SK3+)): ineffective on cell migration
IC50 (MDA-MB-435s [3]; [7]): ~20 µM
